From patent EP2808342B1, “Medium for in-vitro toxicity testing and in-vitro toxicity test method using the same” (priority 2013, dated 2014) come the findings set out here.

Each structure is given as a SMILES string.

Assay [1] deals with N2a cells. The assay is described as follows: Toxicity test (CCK-8 cell proliferation assay) on 3D cell clusters grown on REP-coated plates. Format: cell-based. To be noted: Cell Cluster of Ex. 2 (A), REP-plate. The protocol: REP was dissolved at a concentration of 10 µM in phosphate buffered saline (PBS), and the 10 µM REP solution was aliquoted in an amount of 50 µl per well into 96-well polystyrene plates and incubated for 1 hr at 37°C. The supernatant was removed from each well to leave REP to adhere to the plates.
(§1) N2a cells ([…], purchased from the ATCC, USA) were seeded at a density of 5x10^5 cells/well into the culture plates coated with REP prepared in Example 1 (hereinafter referred to as "REP-plate"). The cell culture medium was Eagle's Minimum Essential Medium (EMEM) supplemented with 2 mM glutamine, 1 mM sodium pyruvate, 1.5 g/l sodium bicarbonate, 100 units/ml penicillin and 100 µg/ml streptomycin. The REP-plates where N2a cells were seeded were incubated for 3 days at 37°C in a 5% CO2 atmosphere with humidity of 95% to afford the formation of 3D cell clusters.
(§2) To the cell clusters obtained in Example 2 or the cells obtained in Comparative Example 1 was added a solution of PFOA (perfluorooctanoic acid, Mw 414.1 g/mol, Sigma-Aldrich, 171468-5G, 96%) with a concentration of 5 µM, 20 µM, 50 µM, 100 µM, 200 µM, 300 µM, 400 µM, 500 µM, 600 µM, 700 µM, 800 µM, 900 µM, 1,000 µM or 2,000 µM. After 3, 24 or 48 hrs of incubation, the cells were assayed for proliferation using a cell counting kit-8 (CCK-8, Dojindo, Japan).
(§3) The PFOA solution was made by dissolving PFOA in dimethyl sulfoxide (DMSO, Sigma-Aldrich, USA) at a final concentration of 5 µM, 20 µM, 50 µM, 100 µM, 200 µM, 300 µM, 400 µM, 500 µM, 600 µM, 700 µM, 800 µM, 900 µM, 1,000 µM or 2,000 µM.
(§4) For the cell proliferation assay, absorbance (OD) at 450 nm was measured on an amicroplate reader (Multiskan, Thermo USA). From the measurements, inhibitory concentration (IC50) values were calculated using TOXCALC 5.0 (Tidepool Scientific Software, USA).
(§5) A solution of PFOS (perfluorooctane sulfonates; Mw 538.2, Sigma-Aldrich, 77282-10G, ≥98.0 (T)) with a concentration of 5 µM, 20 µM, 50 µM, 100 µM, 200 µM, 300 µM, 400 µM, 500 µM, 600 µM, 700 µM, 800 µM, 900 µM, 1,000 µM or 2, 000 µM was added to the cell clusters obtained in Example 2 and to the cells obtained in Comparative Example 1. After 3, 24 or 48 hrs of incubation, the cells were assayed for proliferation using a cell counting kit-8 (CCK-8, Dojindo, Japan).
(§6) The PFOS solution was made by dissolving PFOS in dimethyl sulfoxide (DMSO, Sigma-Aldrich, USA) at a final concentration of 5 µM, 20 µM, 50 µM, 100 µM, 200 µM, 300 µM, 400 µM, 500 µM, 600 µM, 700 µM, 800 µM, 900 µM, 1,000 µM or 2,000 µM.
For orientation: Tetrazolium assays rely on reduction of a dye to a coloured formazan, in cell work by metabolically active cells.

The subject of assay [2] is N2a cells. The assay is described as follows: Toxicity test (CCK-8 cell proliferation assay) on cells cultured on plates not coated with REP. As to conditions: Cultured Cell of C. Ex. 1 (B). It counts as cell-based. The protocol:
as §1
Cells were cultured in the same manner as in Example 2, with the exception that the plates were not coated with REP.
as §2, §3, §4, §5, §6

The mark [3] stands for this setting: Mus musculus, N2a, 3 hrs incubation.
Where [4] appears, read: Mus musculus, N2a, 24 hrs incubation.
Where [5] appears, read: Mus musculus, N2a, 48 hrs incubation.

For `O=C(O)C(F)(F)C(F)(F)C(F)(F)C(F)(F)C(F)(F)C(F)(F)C(F)(F)F` [PFOA, perfluorooctanoic acid], the concentration for half-maximal inhibition (IC50) stood at 632 µM in the assay on N2a cells [1] (setting [3]); 495 µM in the assay with N2a cells [1] (setting [4]); 423 µM with N2a cells [1] (setting [5]); 511 µM in the assay on N2a cells [2] (setting [3]); 389 µM with N2a cells [2] (setting [4]); 310 µM in the assay on N2a cells [2] (setting [5]).

Turning to `O=S(=O)(O)C(F)(F)C(F)(F)C(F)(F)C(F)(F)C(F)(F)C(F)(F)C(F)(F)C(F)(F)F` [PFOS, perfluorooctane sulfonates], the IC50 in the assay on N2a cells [1] (3 hrs incubation) came to 471 µM; in the assay with N2a cells [1] (24 hrs incubation) it was 355 µM; in the assay with N2a cells [1] (48 hrs incubation), 300 µM; with N2a cells [2] (3 hrs incubation), 196 µM; in the assay on N2a cells [2] (24 hrs incubation) it was 219 µM; with N2a cells [2] (48 hrs incubation), 220 µM.

Broadly, the IC50 is the concentration that inhibits the measured activity by half. A lower IC50 goes with inhibition by little substance.
